Data published in patent US11826365B2, “Type II raf kinase inhibitors” (Dana-Farber Cancer Institute, Inc., priority 2009, dated 2023).

Legend:
Assay type in all cases: cell-based
Erk1/2 = assay: Phosphorylation analysis by western blotting, phospho-Erk after anisomycin stimulation; conditions: following stimulation with anisomycin; western blot, phospho-Erk (Thr202/Tyr204)
Procedure: (§1) The phosphorylation levels of Erk, JNK, and p38 were assessed by western blotting using phospho-specific antibodies (results not shown). In brief, cells were treated for 15 min with/without 2 uM anicomycin to stimulate the MAPK-signaling pathways. Next various concentrations of the test compound were added to treat cells for 90 minutes. Cells lysed in lysis buffer (50 mM Tris-HCl pH 7.4, 150 mM NaCl, 5 mM EDTA, 1 mM EGTA, 1% Nonidet P-40, 2 mM Na3VO4 and protease inhibitor cocktail (Roche)). Equal amounts of lysate ([…]) were subjected to SDS-PAGE followed by immunoblotting with phospho-specific antibodies—anti-phospho-Erk (Thr202/Tyr204), anti-phospho-JNK (Thr183/Tyr185) and anti-phospho-p38 (Thr180/Tyr182) antibodies—or antibodies recognizing Erk (Cell signaling). Proteins were detected by enhanced chemioluminescence (ECL-plus; Amersham), following the manufacturer's guidelines.

p38 = assay: Phosphorylation analysis by western blotting, phospho-p38 after anisomycin stimulation; conditions: following stimulation with anisomycin; western blot, phospho-p38 (Thr180/Tyr182)
Procedure: as §1

JNK = assay: Phosphorylation analysis by western blotting, phospho-JNK after anisomycin stimulation; conditions: following stimulation with anisomycin; western blot, phospho-JNK (Thr183/Tyr185)
Procedure: as §1

[1] = biological target: T1, B-RAF 'gatekeeper mutation' T529I (Homo sapiens, UniProt P15056, T529I); assay: Suppression of B-RAF gatekeeper mutation T529I (FIGS. 18A to 18B); conditions: T529I confers resistance in other B-RAF inhibitors
T1 construct: expressed in transfected cells; host or cells: Ba/F3 (murine pro-B) cells transformed with B-RAF
T1 sequence (P15056 whole entry T529I): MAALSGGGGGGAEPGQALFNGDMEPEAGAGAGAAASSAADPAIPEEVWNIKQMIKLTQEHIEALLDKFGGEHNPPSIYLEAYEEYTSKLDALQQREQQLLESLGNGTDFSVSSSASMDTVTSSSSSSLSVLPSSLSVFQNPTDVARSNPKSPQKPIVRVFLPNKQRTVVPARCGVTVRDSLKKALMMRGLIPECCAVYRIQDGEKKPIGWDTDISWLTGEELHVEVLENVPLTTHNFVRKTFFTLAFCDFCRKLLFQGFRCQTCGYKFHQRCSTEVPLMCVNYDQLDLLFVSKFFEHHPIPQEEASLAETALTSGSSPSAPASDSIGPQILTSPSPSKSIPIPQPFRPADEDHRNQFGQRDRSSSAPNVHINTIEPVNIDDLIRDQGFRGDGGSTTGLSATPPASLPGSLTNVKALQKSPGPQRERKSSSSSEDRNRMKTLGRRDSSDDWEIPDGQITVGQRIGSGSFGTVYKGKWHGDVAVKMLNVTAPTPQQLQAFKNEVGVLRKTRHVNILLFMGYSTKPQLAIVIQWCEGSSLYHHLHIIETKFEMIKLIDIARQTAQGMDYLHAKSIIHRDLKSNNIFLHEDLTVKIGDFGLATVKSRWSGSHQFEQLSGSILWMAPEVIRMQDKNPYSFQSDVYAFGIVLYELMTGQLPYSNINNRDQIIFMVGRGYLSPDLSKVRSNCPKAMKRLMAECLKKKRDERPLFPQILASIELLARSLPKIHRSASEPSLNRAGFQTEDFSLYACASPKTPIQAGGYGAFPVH
Procedure: Ba/F3 cells and B-RAF transformed Ba/F3 cells were maintained in RPMI 1640 medium supplemented with 10% fetal bovine serum (FBS) in a 5% CO2 incubator at 37° C. The untransformed Ba/F3 cells are supplemented with 1.0 ng/ml of recombinant IL3. 4000 Ba/F3 cells per well were plated in quadruplicate in 384-well plates, in RPMI 1640 media supplemented with 10% FBS and various concentrations of IL3. After 48 h of growth, Brightglo reagent (Promega, WI) was added to each well. Luminescent was read as counts/sec. XL-fit was used for IC50 analysis.

CCN1CCN(Cc2ccc(NC(=O)c3ccc(C)c(/C=C/c4cnc5[nH]ccc5c4OC)c3)cc2C(F)(F)F)CC1 [XI-1, (E)-N-(4-((4-ethylpiperazin-1-yl)methyl)-3-(trifluoromethyl)phenyl)-3-(2-(4-methoxy-1H-pyrrolo[2,3-b]pyridin-5-yl)vinyl)-4-methylbenzamide]
inhibition of phosphorylation of Erk1/2 (Erk1/2): not | inhibition of phosphorylation of p38 (p38): inhibits | inhibition of phosphorylation of JNK (JNK): inhibits | suppression of B-RAF gatekeeper mutation T529I [1]: can suppress
